Source: patent US5047242A, “Azadirachtin derivative insecticides” (Native Plant Institute ("NPI"), priority 1987, dated 1991)
In brackets after ≈: the same amount, converted by molar mass. Entries after “also recorded” stand apart in the source; their conditions may differ. Read-outs that look alike come from different tables or passages of the source.

Experiments:
[1] = test system: Heliothis virescens; test: Artificial diet feeding bioassay, mortality and growth inhibition in first-instar larvae; type: in vivo, Heliothis virescens (tobacco budworm); details: for EC50 (concentration causing 50% growth inhibition): Table 1, first-instar Heliothis virescens larvae, artificial diet, parentheses = 95% confidence limits
Excerpt: The results of the growth inhibitory and lethal activities of azadirachtin and these 8 derivatives when fed in an artificial diet to Heliothis virescens larvae are shown in Table 1. Similar to the results of Morgan, E. D., in "Natural pesticides from the Neem tree (Azadirachta indica A. Juss), Schmutterer, H., et al., Eds., Proc. First International Neem Conference (Rottach-Egern, 1980), German Agency for Technical Corporation,Eschborn, Germany, 1982, pps. 43-52 (hereinafter "Morgan"), neither deacetylation nor hydrogenation of the carbon-carbon double bond of the dihydrofuran ring moiety of azadirachtin had any significant effect on activity of the compound against H. virescens.
Mortality and growth inhibition in first-instar Heliothis
virescens larvae fed azadirachtin and eight derivatives in an
artificial diet (I. Kubo and J. A. Klocke, In: Plant Resistance to
Insects (P. A. Helin, Ed.), ACS Symposium Series 208, American Chemical
Society, Washington, D.C. (1983), pp. 329-346.).^a
^b LC50 values are the concentrations (ppm) causing 50%
^c EC50 values are the concentrations (ppm) causing 50% growth
^d Numbers in parentheses are the 95% confidence limits determined
using the methods of Litchfield and Wilcoxon, J. Pharmacol. Exp. Ther.
An artificial diet feeding bioassay with neonate larvae of tobacco budworm (Heliothis virescens) and fall armyworm (Spodoptera frugiperda) was used as previously described (Kubo and Klocke, 1983) to detect insecticidal activities in the plant extracts to monitor fractionation, and to determine the potency of the isolated constituents and derivatives. Potency was determined either as the effective concentration (EC50) of added material that is necessary to reduce larval growth to 50% of the control values or as the lethal concentration (LC50) of added material that is necessary to kill 50% of the treated larvae. EC50 and LC50 values were determined from log probit paper and analyzed statistically by the method of Litchfield and Wilcoxon, supra.

[2] = test system: Heliothis virescens; test: Oral injection of fifth-instar larvae, pupal and adult development (non-irradiated compounds); type: in vivo; details: for Number Adults / Number Adults Deformed / Number Pupae / Unsuccessful Larvae-Pupae (number) / Unsuccessful Pupae-Adult (number) / Adults (%) / Adults Deformed (%) / Pupae (%) / Unsuccessful Larvae-Pupae (%) / Unsuccessful Pupae-Adult (%): 1.0 microgram injected orally; for Number Adults / Number Adults Deformed / Number Pupae / Unsuccessful Larvae-Pupae (number) / Unsuccessful Pupae-Adult (number): fifth-instar; for Number Adults / Number Adults Deformed / Number Pupae / Unsuccessful Larvae-Pupae (number) / Unsuccessful Pupae-Adult (number) / inhibition of pupation (in words): non-irradiated; for Adults (%) / Adults Deformed (%) / Pupae (%) / Unsuccessful Larvae-Pupae (%) / Unsuccessful Pupae-Adult (%): % of larvae; for inhibition of pupation (in words): 1.0 μg per os
Method: (§1) Individual larvae were injected per os on the first day of the fifth instar with 1.0 μg of either irradiated or non-irradiated compounds dissolved in 1.0 μl of 75% aqueous ethanol.
Table 2: Successful and unsuccessful pupal and adult development of
fifthinstar Heliothis Virescens larvae injected orally with 1.0 microgram
of either azadirachtin, 3deacetylazadirachtin, 22,23dihydroazadirachtin,
or 2',3',22,23tetrahydroazadirachtin.

[3] = test system: Heliothis virescens; test: Relative activity of UV-irradiated compounds in inhibiting pupal development of fifth-instar larvae; type: in vivo; details: for Relative activity, inhibition of pupal development: relative to non-irradiated counterpart; for activity retained after 90 h of exposure to UV radiation (in words): 90 h UV
Method: (§2) Azadirachtin, 3-deacetylazadirachtin, 22,23-dihydroazadirachtin, and 2',3',22,23-tetrahydroazadirachtin (1.0 mg/ml absolute ethanol) were placed individually in capped quartz NMR tubes (5×180 mm) and were irradiated with two UV germicidal lights (GE, G30T8, 200-280 nm, 30W) 1.8 m from the source at room temperature for up to 400 h. The controls were identical samples protected from exposure to UV radiation by wrapping with aluminum foil. At selected time intervals, aliquots from both the controls (non-irradiated) and irradiated samples were removed for high-performance liquid chromatography (HPLC) analysis and bioassay (vide infra).
as §1
Table 3: Relative activity of azadirachtin, 3deacetylaza-dirachtin,
22,23dihydroazadirachtin, and 2',3',22,23tetrahydroazadirachtin, all of
which had been exposed for 15, 30, 90, 200, and 400 hours to UV radiation
inhibiting the pupal development of fifthinstar Heliothis virescens
(§3) larvae. Relative activity is defined as the percentage of larvae injected

[4] = test system: Heliothis virescens; test: Relative activity of UV-irradiated compounds in inhibiting adult development of fifth-instar larvae; type: in vivo; details: for Relative activity, inhibition of adult development: relative to non-irradiated counterpart; for ability to inhibit larvae from reaching the adult stage after UV (in words): 200 h UV
Method: as §2, §1
Table 4: Relative activity of azadirachtin, 3deacetylaza-dirachtin,
22,23dihydroazadirachtin, 2',3',22,23tetrahydroaza-dirachtin, all of whic
had been exposed for 15, 30, 90, 200, and 400 hours to UV radiation, in
inhibiting the adult development of fifthinstar Heliothis virescens
as §3
relative to the percentage injected with its nonirradiated counterpart

[5] = UV stability in ethanol by reversed phase HPLC; type: physicochemical; details: for UV lability (in words): UV irradiation, HPLC
Method: Stability of Azadirachtin derivatives was determined as follows:
as §2
Analytical reversed phase HPLC was performed on a phenyl (5μm) column run isocratically with acetonitrile-water (3:7) (Yamasaki et al.) Peaks were detected at 214 nm. The irradiated samples were compared with their corresponding non-UV-irradiated controls by measuring the height of the peak eluting at the appropriate Rt for each irradiated compound relative to each one's non-irradiated control. Results are expressed as the percent of the initial sample concentration remaining relative to the control. Each time point was done in at least triplicate fashion.

[6] = test system: insects; test: Antifeedant / systemic action; details: in vivo
[7] = test system: insects; details: literature; cited from earlier work
[8] = test system: insect; details: Kubo & Klocke; cited from earlier work

C/C=C(\C)C(=O)OC1CC(OC(C)=O)C2(C(=O)OC)COC3C2C12COC(O)(C(=O)OC)C2C(C)(C12OC1(C)C1CC2OC2OCCC21O)C3O (stereo not shown) [22,23-dihydroazadirachtin]
EC50 (concentration causing 50% growth inhibition) [1]: 0.08 (0.04-0.15) ppm | Number Adults [2]: 6 Number | Number Adults Deformed [2]: 5 Number | Number Pupae [2]: 47 Number | Unsuccessful Larvae-Pupae (number) [2]: 13 Number | Unsuccessful Pupae-Adult (number) [2]: 4 Number | Adults (%) [2]: 3.4% | Adults Deformed (%) [2]: 2.8% | Pupae (%) [2]: 26.7% | Unsuccessful Larvae-Pupae (%) [2]: 7.4% | Unsuccessful Pupae-Adult (%) [2]: 2.3% | inhibition of pupation (in words) [2]: less effective | Relative activity, inhibition of pupal development ([3]; 15 h UV exposure): 113.1% | Relative activity, inhibition of pupal development ([3]; 30 h UV exposure): 104.6% | activity retained after 90 h of exposure to UV radiation (in words) [3]: retained full activity | Relative activity, inhibition of pupal development ([3]; 90 h UV exposure): 100.0% | ability to inhibit pupation after UV (in words) ([3]; 200 h UV): did decline | Relative activity, inhibition of pupal development ([3]; 200 h UV exposure): 72.7% | ability to inhibit pupation after UV (in words) ([3]; 400 h UV): even greater decline | activity retained after 400 h of exposure to UV radiation ([3]; 400 h UV): approximately 50% | Relative activity, inhibition of pupal development ([3]; 400 h UV exposure): 49.1% | ability to inhibit pupation after UV (in words) ([3]; up to 90 h UV): not appreciably reduced | Relative activity, inhibition of adult development ([4]; 15 h UV exposure): 103.5% | Relative activity, inhibition of adult development ([4]; 30 h UV exposure): 100.1% | Relative activity, inhibition of adult development ([4]; 90 h UV exposure): 103.5% | ability to inhibit larvae from reaching the adult stage after UV (in words) [4]: more so | Relative activity, inhibition of adult development ([4]; 200 h UV exposure): 69.0% | Relative activity, inhibition of adult development ([4]; 400 h UV exposure): 74.5% | degradation following 400 h of exposure to UV radiation (in words) [5]: none of the three compounds remained in their original state | kinetics of UV degradation (in words) [5]: first-order reaction | UV lability (in words) [5]: UV-labile

C/C=C(\C)C(=O)O[C@H]1C[C@@H](OC(C)=O)[C@@]2(C(=O)OC)CO[C@H]3[C@@H](O)[C@@](C)([C@]45O[C@@]4(C)[C@H]4C[C@@H]5O[C@@H]5OC=C[C@@]54O)[C@H]4[C@]1(CO[C@]4(O)C(=O)OC)[C@@H]32 [azadirachtin]
LC50 ([1]; Heliothis virescens, po, read-out: LC50 (concentration causing 50% mortality)): 0.8 µg/mL (≈ 1.11 µM) | EC50 (concentration causing 50% growth inhibition) [1]: 0.07 (0.05-0.10) ppm | Number Adults [2]: 2 Number | Number Adults Deformed [2]: 1 Number | Number Pupae [2]: 10 Number | Unsuccessful Larvae-Pupae (number) [2]: 5 Number | Unsuccessful Pupae-Adult (number) [2]: 0 Number | Adults (%) [2]: 1.3% | Adults Deformed (%) [2]: 0.7% | Pupae (%) [2]: 6.7% | Unsuccessful Larvae-Pupae (%) [2]: 3.4% | Unsuccessful Pupae-Adult (%) [2]: 0% | mortality at 0.001 mg ([2]; Heliothis virescens, light or radiation study, po, read-out: % Mortality Prior to Adult Stage): 98.7% | inhibition of pupation (in words) [2]: equally effective | Relative activity, inhibition of pupal development ([3]; 15 h UV exposure): 98.6% | Relative activity, inhibition of pupal development ([3]; 30 h UV exposure): 98.9% | activity retained after 90 h of exposure to UV radiation (in words) [3]: retained full activity | Relative activity, inhibition of pupal development ([3]; 90 h UV exposure): 85.7% | ability to inhibit pupation after UV (in words) ([3]; 200 h UV): did decline | Relative activity, inhibition of pupal development ([3]; 200 h UV exposure): 74.2% | ability to inhibit pupation after UV (in words) ([3]; 400 h UV): even greater decline | activity retained after 400 h of exposure to UV radiation ([3]; 400 h UV): approximately 50% | Relative activity, inhibition of pupal development ([3]; 400 h UV exposure): 60.0% | ability to inhibit pupation after UV (in words) ([3]; up to 90 h UV): not appreciably reduced | Relative activity, inhibition of adult development ([4]; 15 h UV exposure): 101.3% | Relative activity, inhibition of adult development ([4]; 30 h UV exposure): 101.3% | Relative activity, inhibition of adult development ([4]; 90 h UV exposure): 97.3% | ability to inhibit larvae from reaching the adult stage after UV (in words) [4]: declined sligtly | Relative activity, inhibition of adult development ([4]; 200 h UV exposure): 89.7% | Relative activity, inhibition of adult development ([4]; 400 h UV exposure): 81.1% | degraded after 90 h of exposure to UV radiation ([5]; 90 h UV): more than 80% | degradation following 400 h of exposure to UV radiation (in words) ([5]; 400 h UV): none of the three compounds remained in their original state | T1/2 of UV degradation ([5]; UV 200-280 nm, 1.0 mg/ml ethanol, room temperature): 25 h | UV lability (in words) [5]: UV-labile | kinetics of UV degradation (in words) ([5]; under the conditions used, data not shown): first-order reaction | antifeedant function (in words) [6]: function as antifeedants | ecdysis inhibitory activity (in words) [7]: potent ecdysis inhibitory activity; also recorded: same ecdysis inhibitory activity

C/C=C(\C)C(=O)O[C@@H]1C[C@H](O)[C@]23CO[C@H](C(=O)OC)[C@H]2[C@](C)([C@]24O[C@@]2(C)[C@H]2C[C@@H]4O[C@@H]4OC=C[C@@]42O)[C@H](O)[C@@H]2OC[C@@]1(C(=O)OC)[C@H]23 [deacetylazadirachtinol]
insect growth inhibitor activity, fold less active than azadirachtin [8]: about 2.5 fold | ecdysis inhibitory activity (in words) [7]: same ecdysis inhibitory activity
